Article PMC12501029, “Discovery of a CNS active GSK3 degrader using orthogonally reactive linker screening” (Nature Communications, 2025)

System: GSK3β Ser9 and GSK3β Tyr216 phosphorylation
Assay: GSK3β phosphorylation (Ser9, Tyr216) immunoblot in HEK293 cells
Assay type: cell-based, human
Conditions: 10 nM 24, 27; 10 nM and 1 µM 29; 30 min
Description: HEK293, HAP1, HAP1 CRBN KO and SH-SY5Y cells were plated in either 6 cm plates or 6-well plates at varying densities (0.5–0.7 × 10^6 cells per plate or wells), and MEF cells were plated in 10 cm plates (1–1.2 × 10^6 cells per plate) depending on experimental set up in respective culturing condition as described above. Stock solutions of compounds were prepared as 10 mM in DMSO (Sigma–Aldrich). Working dilutions were made up fresh in DMSO and culturing media or differentiation media was refreshed prior to any compound treatments. For mode of action studies, cells were pre-treated with inhibitors for 2 h: 1 µM MG132 (Merck, 474790-5 mg), 1 µM MLN4924 (Merck, 5054770001) or 1 µM GSK3 inhibitor (compound 29), before treating with PROTACs for 2, 4 or 24 h as indicated in figure legends. Cells were washed twice with ice-cold PBS (Gibco), harvested in PBS and pelleted, cells were resuspended in RIPA buffer supplemented with complete EDTA-free protease inhibitor cocktail (Roche,11873580001, 1/10 mL) and phosSTOP (Roche, 04906845001, 1 tablet/10 mL) for 20 min lysis on ice then cleared via centrifugation at 16,000 × g, 4 °C for 20 min. SH-SY5Y cells were lysed in 500 µL ice-cold lysis buffer (25 mM Tris-HCl (pH 7.4), 50 mM NaF, 100 mM NaCl, 1 mM EDTA, 4 mM EGTA, 1% (v/v) Triton-X-100, 0.09% (w/v) sucrose, 10 mM sodium pyrophosphate, 10 mM sodium vanodate, 0.1% (v/v) β-mercaptoethanol, supplemented with complete mini protease inhibitor tablet (Sigma; 1 tablet/ 10 mL buffer)). Lysates were flash frozen, thawed and centrifugated at 16,000 × g, 4 °C for 20 min. Following clearance of lysates, protein concentrations were determined by the BCA assay (Fisher Scientific, 23225) or Bradford assay (Bio-rad). Five to thirty micrograms of protein from lysates were prepared in 4×LDS buffer (Thermo Fisher) and 50 mM dithiothreitol (DTT) denaturated at 95 °C for 5 min. Proteins were separated on NuPAGE 4–12% Bis-Tris gels (Invitrogen) or 4–12% Novex Tris-glycine gels (Invitrogen) in MOPS buffer (Invitrogen) and transferred onto nitrocellulose membranes using an iBlot3 system (Thermo Fisher Scientific) or nitrocellulose membranes (Cytiva) in cold tris-glycine-methanol buffer (25 mM Tris (pH 7.5), 192 mM glycine, 20% (v/v) methanol). Membranes were blocked with either 5% fat-free milk (Marvel) or 1% (w/v) BSA (Sigma) in TBS-T (20 mM Tris (pH 7.5), 150 mM NaCl, 0.1% (v/v) Tween-20 (Sigma)) at room temperature for 30 min, or in the case of SH-SY5Y assays, 1 h, before incubating with primary antibodies overnight at 4 °C on a rocker. […]

`Cn1nc(N2CCC(=O)NC2=O)c2ccc(CN3CCN(Cc4ccc(-c5cn(-c6ccc(-c7cn8nccc(C(=O)Nc9cnccc9N9CCOCC9)c8n7)cc6)nn5)nc4)CC3)cc21` [compound 24] was tested, and the “impact on GSK3β Ser9 or GSK3β Tyr216 phosphorylation prior to degradation” value was “no impact observed”.
